Measured values reported in article PMC8116058, “De novo macrocyclic peptides dissect energy coupling of a heterodimeric ABC transporter by multimode allosteric inhibition” (eLife, 2021).
Positions of bridges follow the written chain, without caps; N, C: chain ends. Non-standard residues stand in square brackets, D forms with d. Residues, ends and D or L forms follow the SMILES beside them. *: point of attachment. 5FAM = O=C1OC2(c3ccc(O)cc3Oc3cc(O)ccc32)c2ccc(C(=O)*)cc21; βAla = NCCC(=O)O

Tested on: TmrAB
Experimental: In order to analyze the binding affinity and specificity of CPs to TmrAB, we established a fluorescence polarization assay. Fluorescein-labeled CP^Fs were incubated with increasing concentrations of TmrAB reconstituted in liposomes at a protein-to-lipid ratio of 1:20 (w/w). […] To address whether the CPs recognize a linear or non-linear epitope, we examined the binding of CP^Fs after disrupting the quaternary and tertiary structure of TmrAB complexes by adding anionic detergent SDS.
Figure 2. […] (A, B) Equilibrium binding analysis. Fluorescence anisotropy of CP^Fs (50 nM) was determined at λex/em = 485/520 nm with increasing concentrations of TmrAB which was reconstituted in liposomes. TmrAB concentrations were calculated based on the random (50/50%) orientation in proteoliposomes ([Stefan et al., 2020]). […] The difference in fluorescence polarization was normalized to free (0%) and 100% bound CP^F. Mean values ± SD (n = 3) are shown, and data were analyzed by a one-site binding model. […] Amounts of TmrA in input (I), flow-through (FT), wash fraction (W), and eluate (E) were analyzed by SDS-PAGE and immunoblotting (α-His). […] Bound TmrAB was eluted in SDS loading buffer and analyzed by SDS-PAGE (silver stain). […] TmrAB in input (I), flow-through (FT), washing fraction (W), and eluate (E) was analyzed by SDS-PAGE and immunoblotting (α-His). […] CP^F-TmrAB complexes were analyzed by gel filtration. […]

Compound	Isolation of TmrAB from solubilized E. coli membranes
CC(C)[C@@H]1NC(=O)[C@H](Cc2ccccc2)NC(=O)[C@@H]2CCCN2C(=O)[C@H](CC(N)=O)NC(=O)[C@H](Cc2c[nH]c3ccccc23)NC(=O)[C@H](C(C)C)NC(=O)[C@H](Cc2ccc(O)cc2)NC(=O)[C@H](Cc2ccccc2)NC(=O)[C@@H](Cc2ccc(O)cc2)NC(=O)CSC[C@@H](C(=O)NCC(=O)N[C@@H](CO)C(=O)NCCC(=O)NCCC(=O)N[C@@H](CCCNC(=N)N)C(=O)N[C@@H](CCCCNC(=O)c2ccc3c(c2)C(=O)OC32c3ccc(O)cc3Oc3cc(O)ccc32)C(N)=O)NC(=O)[C@H](CCCCN)NC(=O)[C@H](Cc2ccccc2)NC1=O [CP14] ({CH2CO}-[dY]FYVWNPFVFKCGS[βAla][βAla]RK(5FAM)-NH2; thioether N-12; C-terminus assumed)	isolate intact TmrAB complexes
CC[C@H](C)[C@@H]1NC(=O)[C@H](Cc2c[nH]c3ccccc23)NC(=O)[C@H](CC(N)=O)NC(=O)[C@H](C)NC(=O)[C@H](CO)NC(=O)[C@@H]2CCCN2C(=O)[C@H](CC(=O)O)NC(=O)[C@@H](Cc2ccc(O)cc2)NC(=O)CSC[C@@H](C(=O)NCC(=O)N[C@@H](CO)C(=O)NCCC(=O)NCCC(=O)N[C@@H](CCCNC(=N)N)C(=O)N[C@@H](CCCCNC(=O)c2ccc3c(c2)C(=O)OC32c3ccc(O)cc3Oc3cc(O)ccc32)C(N)=O)NC(=O)[C@H]([C@@H](C)O)NC(=O)[C@H](CC(C)C)NC(=O)[C@H](CC(C)C)NC(=O)[C@H](C(C)C)NC(=O)[C@H](CC(C)C)NC1=O [CP13] ({CH2CO}-[dY]DPSANWILVLLTCGS[βAla][βAla]RK(5FAM)-NH2; thioether N-14; C-terminus assumed)	isolate intact TmrAB complexes
